Measured values taken from patent US20230047816A1 (priority 2018, published 2023).
Entries after “also recorded” stand apart in the source; their conditions may differ.

Columns and labels:
[1] = tested on: mouse primary cortical neurons; assay: Mitochondrial ROS (MitoSox) upon excitotoxic stimuli; assay type: cell-based; settings: NMDA and glutamate excitotoxic models; inhibitor 0.01 μM
Procedure: (§1) To directly test the ability of the PFKFB3 inhibitor, AZ67 and Compound 1, to protect against the damage caused by excitotoxic stimuli, mouse primary cortical neurons were subjected to a short-term exposure to NMDA or glutamate (100 μM for 10 minutes), a well-known excitotoxic stimuli (Almeida and Bolahos, 2001). For NMDAR activation, neurons at 8 days in vitro were incubated with 100 μM glutamate (plus 10 μM glycine) or 100 μM NMDA (plus 10 μM glycine) for 10 minutes. Neurons were then washed and further incubated in culture medium with the PFKFB3 inhibitors for 24 hours. A colorimetric NADP/NADPH assay kit (Abcam) was used. Cells were resuspended in 500 μl of NADP/NADPH extraction buffer, vortexed and centrifuged at 14,000 rpm for 5 minutes to remove insoluble material. The supernatant was used for NADPH +plus NADP+ measurement. NADPH was determined in 200 μl of the supernatant, after heatinged […] 60° C. for 30 minutes to decompose NADP+. Actual NADP and NADPH+ concentrations were calculated by extrapolating values to a NADPH standard curve (0-100 pmol/well).
Mitochondrial ROS was detected using the fluorescent probe MitoSox™ (Life Technologies). […] MitoSox™ fluorescence was assessed by flow cytometry and expressed in arbitrary units.

[2] = tested on: mouse cortical primary neurons; assay: β-amyloid-induced neuronal apoptosis (annexin V/7-AAD flow cytometry); assay type: cell-based; settings: β-amyloid 24 hours
Procedure: Primary cultures of C57BL/6 mice cortical neurons were prepared from fetal animals of 14.5 days of gestation, seeded at 1.8·10^5 cells/cm^2 in plastic plates coated with poly-D-lysine (10 mg/ml) and incubated in Neurobasal (Life Technologies) supplemented with 2 mM glutamine, 5 mM of glucose, 0.25 mM pyruvate and 2% B27 supplement (Life Technologies). Cells were incubated at 37° C. in a humidified 5% CO2-containing atmosphere. At 72 hours after plating, medium was replaced using Neurobasal (Life Technologies) supplemented with 2 mM glutamine, 5 mM glucose, 0.25 mM pyruvate and 2% B27 supplement (Life Technologies) minus antioxidants (MAO; i.e., lacking vitamin E, vitamin E acetate, superoxide dismutase, catalase and glutathione). […] APC/C-conjugated annexin-V and 7-amino-actinomycin D (7-AAD) (Becton Dickinson Biosciences, BDB, San Jose, Calif., USA) were used to determine quantitatively the percentage of apoptotic neurons by flow cytometry. Cells were stained with annexin V-APC and 7-AAD, following the manufacturer's instructions, and were analysed on a FACScalibur™ flow cytometer (15 mW argon ion laser tuned at 488 nm; CellQuest software, Becton Dickinson Biosciences) using the CellQuest software (BDB). Both GFP+ and GFP− cells were analyzed separately, and the annexin V-APC-stained cells that were 7-AAD-negative were considered to be apoptotic.

[3] = tested on: neurons from Cln7 knock out (KO) mice; assay: In vitro model of Batten disease, glycolytic flux; assay type: cell-based, mouse; settings: 10 nM, 24 hours
Procedure: Primary cultures of C57BL/6J WT and Cln7Δex2 mice cortical neurons were prepared from fetal animals of 14.5 days of gestation, seeded at 1.8·10^5 cells/cm2 in plastic plates coated with poly-D-lysine […] and incubated in Neurobasal (Life Technologies) supplemented with 2 mM glutamine, 5 mM of glucose, 0.25 mM pyruvate and 2% B27 supplement (Life Technologies). Cells were incubated at 37° C. in a humidified 5% CO2-containing atmosphere. At 72 hours after plating, medium was replaced using Neurobasal (Life Technologies) supplemented with 2 mM glutamine, 5 mM glucose, 0.25 mM pyruvate and 2% B27 supplement (Life Technologies) minus antioxidants (MAO; i.e., lacking vitamin E, vitamin E acetate, superoxide dismutase, catalase, and glutathione). Six days after the plating medium was replaced again. Cells were used at day 9.
Glycolytic flux was measured in 8 cm2 flasks of adherent cells at 60-70% confluence containing a central microcentrifuge tube with 1 ml H2O for 3H2O equilibration. […]. […] Glycolytic flux was measured by assaying the rate of 3H2O production from [3-3H]glucose by incubating cells with 5μ Ci D-[3-3H]glucose in KRPG buffer per flask for 120 min, as previously described [Vicente-Gutierrez, C. et al. Astrocytic mitochondrial ROS modulate brain metabolism and mouse behavior. […] The 3H2O was then measured by liquid scintillation counting (Tri-Carb 4810 TR, PerkinElmer). […]

[4] = tested on: mouse primary cortical neurons; assay: Apoptosis upon glutamate or NMDA (annexin V+/7AAD-); assay type: cell-based; settings: for prevention of apoptotic neuronal death: inhibitor 0.01 μM
Procedure: as §1
To show this, neurons were treated with glutamate of NMDA, and apoptosis assessed by annexin V+/7AAD− staining using flow cytometry, as described above.

[5] = tested on: mouse primary cortical neurons; assay: Lactate release (glycolysis) upon excitotoxic stimuli; assay type: cell-based; settings: NMDA or glutamate 100 μM 10 minutes, then inhibitor 0.01 μM 24 hours
Procedure: as §1, with “Cells were resuspended in 500 μl of NADP/NADPH extraction buffer, vortexed and centrifuged at 14,000 rpm for 5 minutes to remove insoluble material. The supernatant was used for NADPH +plus NADP+ measurement.” left out
In view that this treatment causes PFKFB3 stabilization leading to glycolytic activation and PPP inhibition (Rodriguez-Rodriguez et al., 2012), we reasoned that PFKFB3 inhibition by AZ67 and Compound 1 could abrogate these effects. […] To directly test whether this effect is associated with the control of PFKFB3 on glycolysis, we next assessed the glycolytic-end product, lactate, released to the incubation medium.

Compound: Cc1noc(C)c1Cn1cc(C#N)c2cc(Oc3ccc(NC(=O)[C@@H]4CCCN4)cc3)ccc21 [AZ67, (2S)-N-[4-({3-cyano-1-[(3,5-dimethyl-1,2-oxazol-4-yl)methyl]-1H-indol-5-yl}oxy)phenyl]pyrrolidine-2-carboxamide]
- increase in mitochondrial ROS [1]: significantly prevented the increase in mitochondrial ROS; also recorded: prevent mitochondrial ROS increase
- prevention of apoptotic neuronal death caused by β-amyloid [2]: ~60%
- rate of glycolysis (glycolytic flux) [3]: reduce the excessive glycolysis to normal levels
- protection from apoptosis ([4]; NMDA and glutamate): protect mouse primary cortical neurons from apoptosis
- prevention of apoptotic neuronal death ([4]; NMDA): 90%
- prevention of apoptotic neuronal death ([4]; glutamate): 76%
- lactate released (activation of glycolysis) [5]: fully prevented; also recorded: prevent the increase in lactate production
